Assay results as given in PubChem BioAssay (NCI).
Where “and” joins values, the source holds several entries; their conditions need not be identical. Equal entries are not always repeated.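 Test compounds were applied to cells in 96-well plates for 48 hours at 5 doses. Here, GI50 denotes the concentration required for 50% inhibition of growth. TGI denotes the concentration required for complete inhibition of growth.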 Calls of active or inactive are those of the source. Cut-off read from the data, not from the text of the source: active = GI50 below about 0.43 µM; inactive = the rest.

tested on: MDA-MB-468 breast; assay: inhibition of tumour cell growth, NCI panel, 48 h

Which GI50 does the source give for `CC1=C(CCCOC(=O)[C@H](N)CC(C)C)C2=C(C)C3(CC3)[C@@](C)(O)C(=O)C2=C1` here?
The GI50 was 1.37 µM.

And the TGI?
Its TGI is 4.6 µM.

Which GI50 does the source give for `CCOC(=O)c1noc2c1CCc1c-2cn(Cc2ccc(OC)cc2)c1-c1cc(OC)c(OC)c(OC)c1` here?
The GI50 was 5.62 µM.

What about the TGI of the same molecule?
The TGI was greater than 100 µM.

What does the source list for `C=CCc1cccc(C=O)c1O`?
GI50: > 100 µM; TGI: > 100 µM

`COc1ccc2c(c1)[C@@H](NC(C)=O)CCc1cc(OC)c(OC)c(OC)c1-2` was tested. Which GI50 did it give?
The GI50 was 0.0698 µM.

What about the TGI of the same molecule?
The TGI was greater than 100 µM.

Which results are given for `CN1CCN(Cc2ccc(NC(=O)c3cncc(C#Cc4cnc(N)c5ncccc45)c3)cc2C(F)(F)F)CC1`?
GI50: 0.368 µM; TGI: 1.68 µM

Which GI50 does the source give for `COC(=O)c1cc2ccc(O)c(O)c2cn1` here?
The GI50 was 14.1 µM.

What about the TGI of the same molecule?
The TGI was 27.2 µM.

`CCC(=C(c1ccc(OCCN2CCCCC2)cc1)c1ccc(OCCN2CCCCC2)cc1)c1ccc(Cl)cc1` was tested. Which GI50 did it give?
The GI50 was 3.33 µM.

And the TGI?
The TGI was greater than 16.7 µM.

What does the source list for `COC(=O)c1c2c(c(C)[n+]([O-])c1C)C(=O)C(NCc1ccc(OC)cc1)=CC2=O`?
GI50: 1.27 µM; TGI: 3.06 µM

Which results are given for `COc1cc2cc(NCc3cccc(Cl)c3)nc(C)c2cc1OC`?
GI50: 4.06 µM; TGI: 24.3 µM

`CC(C)(C)CC(C)(C)c1ccc(OCCO)cc1` was tested. Which outcome did it give?
The outcome was “inactive”.

`COc1ccc(-c2nc3sc(-c4cc(OC)c(OC)c(OC)c4)nn3c2/C=C2/C(=O)Nc3ccc(F)cc32)cc1` was tested. Which GI50 did it give?
The GI50 was 2.53 µM.

And the TGI?
Its TGI is 7.88 µM.

For `COc1cc(/C=C/C(=O)c2cccc(-n3cc(-c4ccccc4)[nH]c3=O)c2)cc(OC)c1OC`, which GI50 is on record?
Its GI50 is 1.8 µM.

What about the TGI of the same molecule?
Its TGI is 3.54 µM.

For `CC(C)=CC[C@@H]1CC2(CC=C(C)C)C(=O)C(OC3(C(=O)c4ccccc4)C(=O)C4(CC=C(C)C)C[C@@H](CC=C(C)C)C(C)(C)C(CC=C(C)C)(C4=O)C3=O)(C(=O)c3ccccc3)C(=O)C(CC=C(C)C)(C2=O)C1(C)C` (stereo partly drawn), which GI50 is on record?
The GI50 was 1.23 µM.

And the TGI?
Its TGI is 3.28 µM.

For `CCOc1ccc(N(C)c2ccc(/C=C/C3=[N+](C)c4ccccc4C3(C)C)cc2)cc1`, which GI50 is on record?
Its GI50 is 0.161 µM.

What about the TGI of the same molecule?
The TGI was 1.03 µM.

For `COC(=O)[C@@H](C)C[C@H](Cc1ccccc1)NC(=O)c1nc([C@@H](C[C@H](C(C)C)N(C)C(=O)[C@@H](NC(=O)[C@H]2C[C@H](O)CCN2C)C(C)C)OC(C)=O)sc1C(C)C`, which GI50 is on record?
Its GI50 is less than 0.00111 µM.

`Sc1cccc2cccnc12` was tested. Which GI50 did it give?
Its GI50 is 2.71 µM.

What about the TGI of the same molecule?
Its TGI is 15.6 µM.

For `Cn1ncnc1[C@@H]1c2n[nH]c(=O)c3cc(F)cc(c23)N[C@H]1c1ccc(F)cc1`, which GI50 is on record?
The GI50 was greater than 100 µM.

What about the TGI of the same molecule?
The TGI was greater than 100 µM.

How did the GI50 turn out when `CN1C(=O)C(c2c[nH]c3ccccc23)=C(c2c[nH]c3ccccc23)C1=O` was run?
Its GI50 is 5.12 µM.

What about the TGI of the same molecule?
The TGI was 19 µM.

Which results are given for `O=C1C=C(Nc2ccccc2)c2ccccc2C1=O`?
GI50: 2.04 µM; TGI: 5.94 µM

`N#CC1=C(N)Oc2c(sc3c(Br)cccc23)C1c1ccc([N+](=O)[O-])cc1` (stereo not drawn) was tested. Which GI50 did it give?
The GI50 was 0.318 µM.

And the TGI?
The TGI was 7.27 µM.

How did the GI50 turn out when `CCCCn1c(=O)[nH]c(N)c([C@@H]2c3c([nH]c(=O)n(CCCC)c3=O)Oc3ccc4ccccc4c32)c1=O` was run?
The GI50 was 13.4 µM.

What about the TGI of the same molecule?
Its TGI is 33.4 µM.

How did the GI50 turn out when `CNC(=O)Oc1cc(C(C)C)ccc1Sc1ccc(C(C)C)cc1OC(=O)NC` was run?
Its GI50 is 2.34 µM.

What about the TGI of the same molecule?
Its TGI is 9.89 µM.

For `Nc1c(C(=O)Nc2cccc(Cl)c2)sc2nc3c(cc12)C(=O)CCC3`, which GI50 is on record?
Its GI50 is 0.0879 µM.

What about the TGI of the same molecule?
Its TGI is 1.3 µM.

How did the GI50 turn out when `O=C(/C=C\c1ccc(O)c(O)c1)c1ccccc1O` was run?
Its GI50 is 2.98 µM.

What about the TGI of the same molecule?
Its TGI is 16.7 µM.

Which results are given for `Cn1cc(C2=C(c3ccsc3)C(=O)NC2=O)c2ccccc21`?
GI50: > 22.3 µM; TGI: > 25 µM

`CC1(C)N=C(N)N=C(N)N1c1ccc(OCCCNC(=O)Nc2ccc(S(=O)(=O)F)cc2)c(Cl)c1` was tested. Which GI50 did it give?
The GI50 was 0.818 µM.

And the TGI?
Its TGI is 29.1 µM.

What does the source list for `O=S(=O)(NCCCNc1cc(-c2cn(-c3ccccc3)nc2-c2cccc(O)c2)ccn1)c1ccc(C(F)(F)F)cc1`?
GI50: 1.8 µM; TGI: 5.55 µM

For `COc1ccc(C2=NN(C(N)=S)C(c3ccc4c(c3)OCO4)C2)cc1` (stereo not drawn), which GI50 is on record?
Its GI50 is 2.68 µM.

What about the TGI of the same molecule?
The TGI was 11 µM.

`ClC1=C(Cl)C(Cl)(C2(Cl)C(Cl)=C(Cl)C(Cl)=C2Cl)C(Cl)=C1Cl` was tested. Which GI50 did it give?
Its GI50 is 0.334 µM.

What about the TGI of the same molecule?
The TGI was 1.42 µM.

Which GI50 does the source give for `N#CCCNc1nonc1-c1nc2ccccc2n1CC(=O)c1ccc(N)cc1` here?
Its GI50 is 0.0168 µM.

What about the TGI of the same molecule?
Its TGI is 0.0683 µM.

How did the GI50 turn out when `C/C(=C\C(=O)O[C@H]1[C@@H]2[C@H](C)CC[C@H]2[C@]2(C)O[C@@]1(C1CCCCC1)C[C@H]2OC(=O)CO)c1ccccc1` was run?
The GI50 was 6.7 µM.

What about the TGI of the same molecule?
Its TGI is 13.4 µM.

How did the GI50 turn out when `C[C@@H]1CN2[C@H]3[C@@H]1CC[C@]31CCC(=O)O[C@]1(C)[C@H]1CC[C@H]3CCC=C3[C@@H]12` was run?
Its GI50 is greater than 30 µM.

And the TGI?
Its TGI is greater than 30 µM.

For `O=C1NC(=O)C(c2c[nH]c3ccccc23)=C1c1c[nH]c2ccccc12`, which GI50 is on record?
Its GI50 is 8.28 µM.

What about the TGI of the same molecule?
The TGI was greater than 25 µM.

With `Cn1cc(-c2ccc3nc(-c4ccc(CC(=O)Nc5cc(C(C)(C)C)no5)cc4)cnc3c2)cn1` as the molecule, how does the GI50 read?
Its GI50 is 0.0702 µM.

And the TGI?
Its TGI is greater than 3 µM.

What does the source list for `COc1cccc2c1nc(C(F)F)n2-c1nc(-c2ccc(NS(=O)(=O)CCN(C)C)cc2)nc(N2CCOCC2)n1`?
GI50: 0.0711 µM; TGI: 0.492 µM

With `Cc1ccc(NC(=O)c2ccc(CN3CCN(C)CC3)cc2)cc1Nc1nc(-c2cccnc2)cs1` as the molecule, how does the GI50 read?
The GI50 was 2.98 µM and 2.62 µM.

What about the TGI of the same molecule?
The TGI was 15.3 µM and > 10 µM.

`CCN1CCN(CCC(=O)Nc2cccc(-n3cc(-c4ccncc4)c(-c4ccc(Cl)c(OC)c4)n3)c2)CC1` was tested. Which GI50 did it give?
The GI50 was 0.325 µM.

And the TGI?
Its TGI is 1.41 µM.

With `COC(=O)N[C@H]1CCc2cc(OC)c(OC)c(OC)c2-c2ccc(SC)c(=O)cc21` as the molecule, how does the GI50 read?
Its GI50 is less than 0.01 µM.

What about the TGI of the same molecule?
The TGI was greater than 100 µM.

Which GI50 does the source give for `Cc1[nH]nc2ccc(-c3nc4cnc(N5CCN(C)CC5)cn4c3Nc3ccc(F)cc3Br)cc12` here?
The GI50 was 1.57 µM.

What about the TGI of the same molecule?
Its TGI is 3.31 µM.

`CC(=O)/C(=C\c1ccc(Cl)cc1)c1ccccc1` was tested. Which GI50 did it give?
The GI50 was 0.0361 µM.

What about the TGI of the same molecule?
The TGI was greater than 100 µM.

`O=C(N/N=C/c1ccc(Cl)cc1)c1ccc(NC(=O)c2ccccn2)cc1` was tested. Which GI50 did it give?
The GI50 was 23.2 µM.

And the TGI?
The TGI was 95.2 µM.

What does the source list for `CC(C)=CCc1cc2c(cc1O)C1=C(C(=O)C3=C(NCCS3(=O)=O)C1=O)C(C=C(C)C)O2` (stereo not drawn)?
GI50: 3.27 µM; TGI: 12.8 µM

How did the GI50 turn out when `CC(Nc1ncnc2ccc(-c3cnc(N)nc3)cc12)c1ccccc1` (stereo not drawn) was run?
The GI50 was 1.17 µM.

What about the TGI of the same molecule?
Its TGI is 4.03 µM.

Which GI50 does the source give for `O=c1[nH]c2ccccc2n1C1CCNCC1` here?
Its GI50 is greater than 100 µM.

What about the TGI of the same molecule?
The TGI was greater than 100 µM.

What does the source list for `CCN(Cc1ccc(OC)cc1)c1ccc(CO)c(Cl)c1`?
GI50: 0.0167 µM; TGI: 0.0413 µM

How did the GI50 turn out when `O=C(NCc1cn(Cc2cccc(Oc3ccccc3)c2)nn1)c1cccnc1Nc1ccc(F)cc1` was run?
Its GI50 is 5.17 µM.

What about the TGI of the same molecule?
The TGI was greater than 100 µM.

For `CC(C)=CCC/C(C)=C/CC/C(C)=C/CSC[C@H](NC(=O)CCCCCN1CCN(C)CC1)C(=O)NC1CCCCCC1`, which GI50 is on record?
Its GI50 is 2.06 µM.

And the TGI?
Its TGI is 4.89 µM.

With `O=[N+]([O-])c1ccc(C2=NCCO2)cc1` as the molecule, how does the GI50 read?
The GI50 was greater than 100 µM.

What about the TGI of the same molecule?
The TGI was greater than 100 µM.

Which GI50 does the source give for `O=C(CCCc1ccc(N(CCCl)CCCl)cc1)NCc1ccccc1` here?
Its GI50 is 2.75 µM.

What about the TGI of the same molecule?
The TGI was 10.3 µM.

Which results are given for `Nc1ccc(/C=C/c2ccc3ncccc3c2)cc1`?
GI50: > 100 µM; TGI: > 100 µM
